In ChEMBL document CHEMBL4706632, “Development of Potential Antitumor Agents from the Scaffolds of Plant-Derived Terpenoid Lactones” (J Med Chem, 2020):
pIC50: −log10 of the molar value.

Columns and labels:
[1] = test system: PANC-1; assay: Cytotoxicity against human Panc-1 cells incubated for 72 hrs by sulphorhodamine B assay; type: functional, cell-based; conditions: PANC-1, 72 h
[2] = test system: SW1990; assay: Antiproliferative activity against human SW1990 incubated for 72 hrs by sulphorhodamine B assay; type: functional, cell-based; conditions: SW1990, 72 h
[3] = test system: HCT-116; assay: Cytotoxicity against human HCT116 cells incubated for 72 hrs by ATPlite assay; type: functional, cell-based; conditions: HCT-116, 72 h
[4] = test system: WM 266-4; assay: Cytotoxicity against human WM 266-4 cells incubated for 72 hrs by ATPlite assay; type: functional, cell-based; conditions: WM 266-4, 72 h
[5] = test system: MCF7; assay: Cytotoxicity against human MCF-7 cells incubated for 72 hrs by MTT assay; type: functional, cell-based; conditions: MCF7, 72 h
[6] = test system: MDA-MB-231; assay: Cytotoxicity against human MDA-MB-231 cells incubated for 72 hrs by MTT assay; type: functional, cell-based; conditions: MDA-MB-231, 72 h
[7] = test system: P388; assay: Antiproliferative activity against mouse P388 cells; type: functional, cell-based
[8] = Inhibition of PAFR in New Zealand rabbit platelets assessed as reduction in PAF-induced platelet aggregation measured within 5 mins by aggregometry analysis; type: tissue-based; conditions: Oryctolagus cuniculus
[9] = test system: A-431; assay: Antiproliferative activity against human A-431 cells incubated for 72 hrs by Sulforhodamine B assay; type: functional, cell-based; conditions: A-431, 72 h
[10] = test system: A549; assay: Antiproliferative activity against human A549 cells incubated for 72 hrs by Sulforhodamine B assay; type: functional, cell-based; conditions: A549, 72 h
[11] = Antiproliferative activity against human U87-MG cells incubated for 72 hrs by Sulforhodamine B assay; type: functional, cell-based; conditions: U-87 MG
[12] = test system: HCT-116; assay: Antiproliferative activity against human HCT-116 cells incubated for 72 hrs by WST-1 assay; type: functional, cell-based; conditions: HCT-116, 72 h
[13] = test system: MDA-MB-231; assay: Cytotoxicity against human MDA-MB-231 cells incubated for 48 hrs by MTT assay; type: functional, cell-based; conditions: MDA-MB-231, 48 h
[14] = test system: PANC-1; assay: Cytotoxicity against human Panc-1 cells incubated for 48 hrs by MTT assay; type: functional, cell-based; conditions: PANC-1, 48 h
[15] = test system: HepG2; assay: Cytotoxicity against human HepG2 cells incubated for 48 hrs by MTT assay; type: functional, cell-based; conditions: HepG2, 48 h
[16] = test system: AGS; assay: Cytotoxicity against human AGS cells incubated for 48 hrs by MTT assay; type: functional, cell-based
[17] = test system: HeLa; assay: Cytotoxicity against human HeLa cells incubated for 48 hrs by MTT assay; type: functional, cell-based

Work on `COC(=O)[C@@]12OC[C@]34[C@H]([C@@H](O)[C@@H]1O)[C@@]1(C)C=C(O[C@@H]5O[C@H](CO)[C@@H](O)[C@H](O)[C@H]5O)C(=O)[C@@H](C)[C@@H]1C[C@H]3OC(=O)[C@H](OC(=O)/C=C(\C)C(C)C)[C@@H]24` yielded a pIC50 [1] of under 5.00 and a pIC50 [2] of under 5.00.

For `C[C@]1(O)COC2(C[C@@H]([C@@H]3CC[C@]45C[C@]34C=C[C@@H]3[C@@]4(C)CC=C6C[C@@H](Cc7ccccc7)OC[C@]6(C)[C@@H]4C[C@@H](O)[C@]35C)C(=O)O2)C1` (stereo partly specified), the pIC50 [3] was 6.35 and the pIC50 [4] was 5.89.

Work on `CC1=CC(=O)[C@@H](O)[C@]2(C)[C@H]3[C@@H](O)[C@H](O)[C@@]4(C)OC[C@@]35[C@@H](C[C@@H]12)OC(=O)[C@H](O)[C@]54O` yielded a pIC50 [5] of 4.72, a pIC50 [1] of 5.89 and a pIC50 [6] of 4.62. For the same molecule, the pIC50 [2] was 5.68.

In the case of `CC(=O)O[C@@H]1C[C@H](O)[C@@]23COC(O)[C@]1(C)[C@@H]2C[C@@H](O)[C@]1(C)[C@@H]3C(=O)C[C@@]2(C)[C@H](c3ccoc3)C[C@H]3O[C@@]312` (stereo partly specified), the pIC50 [7] was over 8.72.

Work on `CC(O)(CO)[C@H]1C[C@H](O)[C@@H]([C@@H]2CC=C3[C@]4(C)[C@H](O)C[C@@H]5[C@](C)(CC=C6C[C@@H](Cc7ccccc7)OC[C@@]65C)[C@H]4CC[C@]32C)[C@@H](O)O1` (stereo partly specified) yielded a pIC50 [3] of 5.38 and a pIC50 [4] of 4.51.

`Cc1ccccc1Cn1cc(CO[C@H]2C(=O)O[C@H]3O[C@]45C(=O)O[C@@H]6C[C@@H](C(C)(C)C)[C@@]32[C@@]64C[C@@H]2OC(=O)[C@@H](C)[C@@]25O)nn1` gave a pIC50 [8] of 7.15.

`C[C@H](CO[C@@H]1O[C@H](CO)[C@@H](O)[C@H](O)[C@H]1O)[C@H]1OC(=O)C=C2[C@@]13O[C@@H]3[C@H]1OC(=O)[C@@]3(C)[C@@H](O)CC[C@@]2(C)[C@@H]13` showed a pIC50 [9] of under 4.30, a pIC50 [10] of under 4.30 and a pIC50 [11] of under 4.30.

`COC(=O)[C@@]12OC[C@]34[C@H]([C@@H](O)[C@@H]1O)[C@@]1(C)CC(=O)C(O)=C(C)[C@@H]1C[C@H]3OC(=O)[C@H](OC(=O)/C=C(\C)C(C)(C)OC(C)=O)[C@@H]24` gave a pIC50 [5] of 7.20, a pIC50 [12] of 7.30 and a pIC50 [6] of 7.06.

With `C/C(=C\[C@@H]1OC(=O)[C@H]([C@@H]2CC[C@]34C[C@]23C=C[C@@H]2[C@@]3(C)CC=C5C[C@@H](c6ccccc6)OC[C@]5(C)[C@@H]3C[C@@H](O)[C@]24C)[C@H]1O)CO` the pIC50 [3] was 7.09 and the pIC50 [4] was 6.47.

Molecule `CC(=O)O[C@@]1(C)COC2(C1)OC(=O)[C@H]([C@@H]1CC[C@]34C[C@]13C=C[C@@H]1[C@@]3(C)CC=C5C[C@@H](Cc6ccccc6)OC[C@]5(C)[C@@H]3[C@@H](O)C(=O)[C@]14C)[C@H]2O` (stereo partly specified) has a pIC50 [3] of 8.00 and a pIC50 [4] of 7.11.

Molecule `C[C@@]12C3=CC(=O)O[C@H]([C@H](O)CO)[C@]34O[C@@H]4[C@H]3OC(=O)[C@](C)([C@H]31)[C@@H](O)[C@H]1O[C@H]12` has a pIC50 [13] of under 4.40, a pIC50 [14] of under 4.40 and a pIC50 [15] of under 4.40. The pIC50 [16] was under 4.40 and the pIC50 [17] was under 4.40.

With `C[C@@H](O)[C@H]1OC(=O)C=C2[C@]3(C)[C@H]4[C@H](OC(=O)[C@@]4(C)[C@@H](O)[C@H]4O[C@H]43)[C@H]3O[C@@]231` the pIC50 [13] was 5.52, the pIC50 [14] was 4.80 and the pIC50 [15] was 4.96. It also gave a pIC50 [16] of 5.89 and a pIC50 [17] of 5.74.

With `COC(=O)[C@@]12OC[C@]34[C@H]([C@@H](O)[C@@H]1O)[C@@]1(C)CC(=O)C(O)=C(C)[C@@H]1C[C@H]3OC(=O)[C@H](OC(C)=O)[C@@H]24` [BRUCEINE B] the pIC50 [12] was 7.00.

Molecule `C[C@H](CO)[C@H]1OC(=O)C=C2[C@@]13O[C@@H]3[C@H]1OC(=O)[C@@]3(C)C[C@@H](O)C[C@@]2(C)[C@@H]13` has a pIC50 [9] of 5.77, a pIC50 [10] of 5.85 and a pIC50 [11] of 5.85.

Work on `CC(C)[C@H]1OC(=O)C=C2[C@@]13O[C@@H]3[C@H]1OC(=O)[C@@]3(C)C[C@@H](O)C[C@@]2(C)[C@@H]13` yielded a pIC50 [13] of under 4.40, a pIC50 [9] of 6.68 and a pIC50 [10] of 6.24. For the same molecule, the pIC50 [14] was under 4.40, the pIC50 [15] was 5.51 and the pIC50 [16] was 5.85. It also gave a pIC50 [17] of 6.22 and a pIC50 [11] of 6.37.

`CC(C)[C@H]1OC(=O)C=C2C1=C[C@H]1OC(=O)[C@@]3(C)C[C@@H](O)C[C@@]2(C)[C@@H]13` showed a pIC50 [13] of 5.96, a pIC50 [14] of 5.51 and a pIC50 [15] of 5.43. The pIC50 [16] was 6.43 and the pIC50 [17] was 6.05.

Work on `CC(=O)O[C@@]1(C)COC2(C1)OC(=O)[C@H]([C@@H]1CC[C@]34C[C@]13C=C[C@@H]1[C@@]3(C)CC=C5C[C@@H](Cc6ccccc6)OC[C@]5(C)[C@@H]3CC(=O)[C@]14C)[C@H]2O` (stereo partly specified) yielded a pIC50 [3] of 7.24 and a pIC50 [4] of 6.64.
